Assay results taken from US12479816B2, “20-HETE formation inhibitors” (UNIVERSITY OF PITTSBURGH—OF THE COMMONWEALTH SYSTEM OF …, priority 2019, dated 2025).
Like-named read-outs stand apart in the source and are kept apart here.

Assays:
[1] = target: formation of EETs and DiHETs (epoxygenase activity) in HLM; assay: Selectivity: inhibition of EETs and DiHETs formation (epoxygenase activity) in HLM; assay type: biochemical, human; conditions: for IC50: sum of EETs and DiHETs
Method: Selectivity of compounds for inhibition of 20-HETE formation vs inhibition of formation of 8,9-, 11,12-, 14,15-EET and 5,6-, 8,9-, 11,12-, 14,15-DiHETs was assessed via the simultaneous monitor of formation of 20-HETE and those metabolites under the UPLC-MS/MS assay conditions described above using HLM incubations and the same 12 test compound concentrations (0.1 nM-[…]) used for the IC50 determination experiments. At each of the 12 concentrations, the selectivity of 20-HETE inhibition over the other metabolites was compared. Epoxygenase activity was assessed by the sum of EETs and DiHETEs as percentage of control.

rCYP4F2 = target: T1, rCYP4F2 (Homo sapiens, UniProt P78329); assay: Inhibition of 20-HETE formation at 250 or 500 nM in rCYP4F2 incubations; assay type: biochemical; conditions: 500 nM compound; rCYP4F2 25 pmol/mL; read-out: rCYP4F2 % inh. @ 500 nM
T1 sequence (P78329 5-520): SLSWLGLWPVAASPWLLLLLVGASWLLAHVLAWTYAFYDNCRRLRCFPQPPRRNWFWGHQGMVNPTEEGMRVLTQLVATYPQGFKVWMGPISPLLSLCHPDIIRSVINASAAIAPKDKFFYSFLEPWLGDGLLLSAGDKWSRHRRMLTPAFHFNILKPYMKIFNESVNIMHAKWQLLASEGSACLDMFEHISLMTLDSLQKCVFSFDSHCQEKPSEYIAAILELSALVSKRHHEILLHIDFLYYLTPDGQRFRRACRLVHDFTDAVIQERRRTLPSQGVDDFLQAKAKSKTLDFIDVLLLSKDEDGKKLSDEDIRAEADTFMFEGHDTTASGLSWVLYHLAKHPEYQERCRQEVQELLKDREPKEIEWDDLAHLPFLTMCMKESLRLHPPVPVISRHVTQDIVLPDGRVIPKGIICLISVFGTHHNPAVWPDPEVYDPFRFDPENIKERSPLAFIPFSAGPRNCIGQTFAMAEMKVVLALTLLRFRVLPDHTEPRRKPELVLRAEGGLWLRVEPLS
How it was run: (§1)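 Liver or kidney microsomes (300 μg/ml) or rCYP4F2 (25 pmol/mL) were incubated with 100 μM arachidonic acid, 1 mM NADPH and compound at 250 or 500 nM in 0.12 M potassium phosphate/5 mM MgCl2 for 20 min at 37 °C. 20-HETE was measured by UPLC-MS/MS against 20-HETE-d6 and expressed as % of vehicle (n=3).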

[2] = system: 20-HETE formation (CYP4) in HLM; assay: Inhibition of 20-HETE formation at 250 or 500 nM in HLM microsomal incubations; assay type: biochemical, human; conditions: 500 nM compound; HLM 300 μg/ml, AA 100 μM, 20 min
How it was run: as §1

[3] = system: 20-HETE formation (CYP4) in HLM; assay: IC50 determination, 20-HETE formation in HLM; assay type: biochemical, human; conditions: HLM 300 μg/ml, AA 100 μM, 12 concentrations
Method: (§2) Microsomal incubations contained HLM, RLM (300 μg/ml), AA (100 μM), NADPH (1 mM) and test compounds at 12 concentrations (0.1 nM-50 μM) in a 1 ml total volume in microsomal incubation buffer (0.12 M potassium phosphate buffer containing 5 mM magnesium chloride). Reaction was started by adding NADPH to the incubates and was carried out at 37° C. in a shaking water bath for 20 min. Reaction was stopped by placing tubes on ice, followed by adding 12.5 μl 20-HETE-d6 as internal standard to each sample. Microsomal incubations were extracted with 3 ml ethyl ether twice, dried down under nitrogen gas and reconstituted in 125 μl 80:20 methanol:deionized H2O for analysis. 20-HETE formation was quantified using the validated UPLC-MS/MS assay described above and normalized by vehicle group. HET0016 (250 nM) was used as positive control. Incubates without NADPH group served as the negative control. IC50 was determined by fitting the dose-response curve using Graphpad Prism nonlinear regression.

[4] = system: 20-HETE formation (CYP4) in RKM; assay: Inhibition of 20-HETE formation at 250 or 500 nM in RKM microsomal incubations; assay type: biochemical, rat; conditions: 500 nM compound; RKM 300 μg/ml
How it was run: as §1

[5] = system: 20-HETE formation (CYP4) in RLM; assay: Inhibition of 20-HETE formation at 250 or 500 nM in RLM microsomal incubations; assay type: biochemical, rat; conditions: 500 nM compound; RLM 300 μg/ml
How it was run: as §1

[6] = HLM stability determination; assay type: in vitro ADME, human; conditions: HLM 500 μg/ml, 1 μM compound, NADPH, relative to 0 min
Method: HLM stability determinations shown in Table 3 were obtained as follows. Microsomal incubates contained HLM (500 μg/ml), test compounds (1 μM) and NADPH (1.3 mM) in a 1 ml total volume of microsomal incubation buffer (0.12 M potassium phosphate buffer containing 5 mM magnesium chloride). Reaction was started by adding NADPH to the incubates and was carried out at 37° C. in a shaking water bath for 60 min. At 0, 15, 30, 45, 60 min, a 50 μl aliquot of incubates was taken out and reaction was stopped by adding aliquot into 200 μl ice-cold acetonitrile. After centrifugation at 14000×g for 5 min, 200 μl supernatant was taken out for UPLC-MS/MS analysis as described above. Values at 0 min were used as corresponding control for test compounds. Varapamil, metoprolol, and warfarin, categorized as fast, moderate and slow metabolism, were used as positive control. Incubates without NADPH group served as negative control.

[7] = Turbidometric solubility determination; assay type: physicochemical; conditions: PBS with 1% DMSO, aqueous buffer, kinetic from dmso stock, room temperature
How it was run: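 Kinetic turbidimetric solubility: DMSO stocks diluted 1:100 into PBS in triplicate to give 0–600 μM in 1% DMSO. Shaken 2 h at room temperature, then OD620 read. Solubility limit taken as the concentration giving a statistically significant absorbance rise above background.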

[8] = system: 20-HETE formation (CYP4) in RLM; assay: IC50 determination, 20-HETE formation in RLM; assay type: biochemical, rat; conditions: RLM 300 μg/ml, AA 100 μM, 12 concentrations
Method: as §2

SMILES | IC50 [1] [µM] | inhibition at 0.5 µM (rCYP4F2) [%] | HLM % inh. @ 500 nM [2] [%] | IC50 [3] [µM] | RKM % inh. @ 500 nM [4] [%] | RLM % inh. @ 500 nM [5] [%] | Stability HLM % @ 30 min [6] [%] | EETs Inhibition, % @ 50,000 ([1]; at 50,000 (nM per column head)) | solubility at 2 h ([7]; OD620, read-out: Max Solub) [µM] | solubility at 2 h ([7]; read-out: Solubility_ug/mL) [µg/mL] | IC50 [8] [µM]
c1ccc(CC2CCN(c3ccn[nH]3)CC2)cc1 [Compound 2, 4-Benzyl-1-(1H-pyrazol-5-yl)piperidine] | > 50 | 47.6 | 59.90 | 0.15 | 0.00 | 0.00 | 61 | – | – | – | –
COc1cccc(C2CCN(c3ccn[nH]3)CC2)c1 [Compound 7, 4-(3-Methoxyphenyl)-1-(1H-pyrazol-5-yl)piperidine] | – | 6.5 | 51.70 | 0.19 | 0.00 | 42.30 | – | 2.6% @ 50,000 | 494 | 127 | –
CCS(=O)(=O)c1ccc(C2CCN(c3cn[nH]c3)CC2)cc1 [Compound 52, 4-(4-(Ethylsulfonyl)phenyl)-1-(1H-pyrazol-4-yl)piperidine] | – | 74.8 | 84.10 | 0.08 | – | 13.40 | 100 | – | 244 | 78 | –
CCS(=O)(=O)c1ccc(C2CCN(c3ccn[nH]3)CC2)cc1 [Compound 58, 4-(4-(Ethylsulfonyl)phenyl)-1-(1H-pyrazol-5-yl)piperidine] | – | 70.6 | 67.40 | 0.11 | – | 0.00 | 97 | – | 394 | 126 | –

Further lines, results first:

IC50 [1] [µM] | inhibition at 0.5 µM (rCYP4F2) [%] | HLM % inh. @ 500 nM [2] [%] | IC50 [3] [µM] | RKM % inh. @ 500 nM [4] [%] | RLM % inh. @ 500 nM [5] [%] | Stability HLM % @ 30 min [6] [%] | EETs Inhibition, % @ 50,000 ([1]; at 50,000 (nM per column head)) | solubility at 2 h ([7]; OD620, read-out: Max Solub) [µM] | solubility at 2 h ([7]; read-out: Solubility_ug/mL) [µg/mL] | IC50 [8] [µM] | SMILES
> 50 | 48.9 | 62.70 | 0.17 | 0.00 | 45.50 | – | – | 111 | 29 | – | COc1cccc(C2CCN(c3cn[nH]c3)CC2)c1 [Compound 8, 4-(3-Methoxyphenyl)-1-(1H-pyrazol-4-yl)piperidine]
– | 95 | 86.00 | 0.05 | 40.00 | 37.00 | 0 | – | 482 | 137 | – | CC(=O)Nc1ccc(C2CCN(c3cn[nH]c3)CC2)cc1 [Compound 30, N-(4-(1-(1H-Pyrazol-4-yl)piperidin-4-yl)phenyl)acetamide]
– | 86 | 85.00 | 0.05 | 21.00 | 42.00 | 100 | – | – | – | 0.34 | COc1ccc(C2CCN(c3cn[nH]c3)CC2)cc1F [Compound 44, 4-(3-Fluoro-4-methoxyphenyl)-1-(1H-pyrazol-4-yl)piperidine]
– | 88 | 82.00 | 0.08 | 0.00 | 63.00 | 100 | – | – | – | – | COc1ccc(C2CCN(c3cn[nH]c3)CC2)c(F)c1 [Compound 47, 4-(2-Fluoro-4-methoxyphenyl)-1-(1H-pyrazol-4-yl)piperidine]
– | 73.7 | 63.30 | 0.19 | – | 64.40 | 98 | – | > 600 | 155 | – | COc1cncc(C2CCN(c3cn[nH]c3)CC2)c1 [Compound 59, 3-(1-(1H-Pyrazol-4-yl)piperidin-4-yl)-5-methoxypyridine]
